Laboratory results reported in patent US20100063026A1, “ANTIBACTERIAL QUINOLINE DERIVATIVES” (priority 2007, published 2010).
In brackets after ≈: the same amount, converted by molar mass.

Assays:
[1] = test system: Staphylococcus aureus (ATCC29213); experiment: Microtitre plate IC90 determination against non-mycobacterial strains: S. aureus; type: cell-based; details: 90% inhibitory concentration for bacterial growth, 37° C., resazurin fluorescence; for IC90: Staphylococcus aureus, ATCC29213, 24 h, read-out: IC90 STA 1 B29213; for IC90 STA 1 B29213: 24 hours
Experimental: (§1) The bacteria used in this study were grown overnight in flasks containing 100 ml Mueller-Hinton Broth (Becton Dickinson-cat. no. 275730) in sterile de-ionized water, with shaking, at 37° C. Stocks (0.5 ml/tube) were stored at -70° C. until use. Bacteria titrations were performed in microtiter plates to detect the TCID50, in which the TCID50 represents the dilution that gives rise to bacterial growth in 50% of inoculated cultures. In general, an inoculum level of approximately 100 TCID50 was used for susceptibility testing. […] Therefore resazurin (0.6 mg/ml) was added in a volume of 20 μl to all wells 3 hours after inoculation, and the plates were re-incubated overnight. A change in colour from blue to pink indicated the growth of bacteria.

M. smegmatis ATCC607 = experiment: In-vitro anti-bacterial activity against strain M. smegmatis ATCC607; details: for IC90: Mycolicibacterium smegmatis, ATCC607, 48 h, read-out: IC90 MSM 1 ATCC607, 90% inhibitory concentration for bacterial growth, 37° C., Alamar Blue fluorescence; for IC90 MSM 1 ATCC607: 90% inhibitory concentration for bacterial growth, 48 hours, 37° C., Alamar Blue fluorescence
Experimental: Flat-bottom, sterile 96-well plastic microtiter plates were filled with 180 μl of sterile deionized water, supplemented with 0.25% BSA. Subsequently, stock solutions (7.8× final test concentration) of compounds were added in 45 μl volumes to a series of duplicate wells in column 2 so as to allow evaluation of their effects on bacterial growth. Serial five-fold dilutions (45 μl in 180 μl) were made directly in the microtiter plates from column 2 to 11 using a customised robot system (Zymark Corp., Hopkinton, Mass.). Pipette tips were changed after every 3 dilutions to minimize pipetting errors with high hydrophobic compounds. Untreated control samples with (column 1) and without (column 12) inoculum were included in each microtiter plate. Approximately 250 CFU per well of bacteria inoculum, in a volume of 100 μl in 2.8× Mueller-Hinton broth medium, was added to the rows A to H, except column 12. The same volume of broth medium without inoculum was added to column 12 in row A to H. The cultures were incubated at 37° C. for 48 hours in a humidified 5% CO2 atmosphere (incubator with open air valve and continuous ventilation). At the end of incubation, two days after inoculation, the bacterial growth was quantitated fluorometrically. Therefore Alamar Blue (10×) was added to all wells in a volume of 20 μl and plates were incubated for another 2 hours at 50° C.
The fluorescence was read in a computer-controlled fluorometer (Cytofluor, Biosearch) at an excitation wavelength of 530 nm and an emission wavelength of 590 nm (gain 30). The percentage growth inhibition achieved by the compounds was calculated according to standard methods and expressed as IC90 (μg/ml) which defines the 90% inhibitory concentration for bacterial growth.

[2] = test system: Streptococcus pneumoniae (ATCC6305); experiment: Microtitre plate IC90 determination against non-mycobacterial strains: S. pneumoniae; type: cell-based; details: 90% inhibitory concentration for bacterial growth, 37° C., resazurin fluorescence; for IC90: Streptococcus pneumoniae, ATCC6305, 24 h, read-out: IC90 SPN 1 6305; for IC90 SPN 1 6305: 24 hours
Experimental: as §1

Structure (SMILES)	IC90 [1] [µg/mL]	IC90 (M. smegmatis ATCC607) [µg/mL]	IC90 [2] [µg/mL]	IC90 STA 1 B29213 [1] [µg/mL]	IC90 MSM 1 ATCC607 (M. smegmatis ATCC607) [µg/mL]	IC90 SPN 1 6305 [2] [µg/mL]
COc1nc2ccc(Br)cc2cc1C(c1ccccc1)C(O)(CCCCN1CCCN(C)CC1)c1ccc2ccccc2c1 (single isomer, unassigned) [Compound 34]	2.1 (≈ 3.22 µM)	2.1 (≈ 3.22 µM)	–	–	–	–
COc1nc2ccc(Br)cc2cc1C(c1ccccc1)C(O)(CCCCN1CCN(C(C)=O)CC1)c1ccccc1 (single isomer, unassigned) [Compound 3]	61.7 (≈ 100 µM)	4.9 (≈ 7.95 µM)	9.8 (≈ 15.9 µM)	–	–	–
COc1nc2ccc(Br)cc2cc1C(c1ccccc1)C(O)(CCCCN(C)CCc1ccccn1)c1ccccc1 (stereo not drawn) [Compound 6]	2 (≈ 3.2 µM)	2 (≈ 3.2 µM)	2.2 (≈ 3.52 µM)	–	–	–
COc1nc2ccc(Br)cc2cc1C(c1ccccc1)C(O)(CCCCN1CC2CC1CN2Cc1ccccc1)c1ccc2ccccc2c1 (single isomer, unassigned) [Compound 20]	–	–	0.6 (≈ 0.826 µM)	11.5 (≈ 15.8 µM)	2.3 (≈ 3.16 µM)	–
COc1nc2ccccc2cc1C(c1ccccc1)C(O)(CCCCN1CC2CC1CN2)c1ccc2ccccc2c1 (single isomer, unassigned) [Compound 19]	–	–	–	1.8 (≈ 3.23 µM)	1.6 (≈ 2.87 µM)	2.2 (≈ 3.94 µM)
COc1nc2ccc(Br)cc2cc1C(c1ccccc1)C(O)(CCCCN1CCC1)c1ccccc1 (single isomer, unassigned) [Compound 42]	–	–	–	8.6 (≈ 15.8 µM)	2.2 (≈ 4.03 µM)	4.3 (≈ 7.88 µM)
COc1nc2ccc(Br)cc2cc1C(c1ccccc1)C(O)(CCCCN1CC2CC1CN2Cc1ccccc1)c1ccccc1 (single isomer, unassigned) [Compound 48]	2.1 (≈ 3.1 µM)	2.4 (≈ 3.55 µM)	0.5 (≈ 0.739 µM)	–	–	–
COc1ccc(N2CCN(CCCCC(O)(c3ccc4ccccc4c3)C(c3ccccc3)c3cc4cc(Br)ccc4nc3OC)CC2)cc1 (single isomer, unassigned) [Compound 26]	18.4 (≈ 25.2 µM)	18.4 (≈ 25.2 µM)	18.4 (≈ 25.2 µM)	–	–	–
COc1nc2ccc(Br)cc2cc1C(c1ccccc1)C(O)(CCCCN1CC2CC1CN2C1CCN(C)CC1)c1ccc2ccccc2c1 (single isomer, unassigned) [Compound 64]	–	–	–	2.3 (≈ 3.13 µM)	1.3 (≈ 1.77 µM)	–
COc1nc2ccc(Br)cc2cc1C(c1ccccc1)C(O)(CCCCNC1CC2CCC1C2)c1ccc2ccccc2c1 (stereo not drawn) [Compound 40]	–	–	–	1.6 (≈ 2.46 µM)	0.4 (≈ 0.616 µM)	0.5 (≈ 0.77 µM)
COc1nc2ccc(Br)cc2cc1C(c1ccccc1)C(O)(CCCCN1CCCNCC1)c1ccccc1 (single isomer, unassigned) [Compound 47]	1.9 (≈ 3.23 µM)	1.9 (≈ 3.23 µM)	0.9 (≈ 1.53 µM)	–	–	–
COc1nc2ccc(Br)cc2cc1C(c1ccccc1)C(O)(CCCCN1CC2CC1CN2Cc1ccccc1)CCCc1ccccc1 (single isomer, unassigned) [Compound 14]	11.4 (≈ 15.9 µM)	3.6 (≈ 5.01 µM)	2.6 (≈ 3.62 µM)	–	–	–
COc1nc2ccc(Br)cc2cc1C(c1ccc(Cl)cc1)C(O)(CCCCN1CC2CC1CN2Cc1ccccc1)c1ccc2ccccc2c1 (single isomer, unassigned) [Compound 36]	–	2.7 (≈ 3.55 µM)	0.9 (≈ 1.18 µM)	53.9 (≈ 70.8 µM)	–	–
COc1nc2ccc(Br)cc2cc1C(c1ccccc1)C(O)(CCCCN1CC2CC1CN2CCN(C)C)c1ccc2ccccc2c1 (single isomer, unassigned) [Compound 61]	2.2 (≈ 3.11 µM)	2.2 (≈ 3.11 µM)	–	–	–	–
COc1nc2ccc(Br)cc2cc1C(c1ccccc1)C(O)(CCCCN1CC2CC1CN2Cc1ccccc1)CCCc1ccccc1 (single isomer, unassigned) [Compound 15]	–	–	–	11.4 (≈ 15.9 µM)	4.0 (≈ 5.56 µM)	2.6 (≈ 3.62 µM)
COc1nc2ccc(Br)cc2cc1C(c1ccc(Cl)cc1)C(O)(CCCCN1CC2CC1CN2Cc1ccccc1)c1ccc2ccccc2c1 (single isomer, unassigned) [Compound 37]	–	–	–	2.7 (≈ 3.55 µM)	2.1 (≈ 2.76 µM)	0.5 (≈ 0.657 µM)
COc1nc2ccc(Br)cc2cc1C(c1ccccc1)C(O)(CCCCNC1CC2CCC1C2)c1ccccc1 (stereo not drawn) [Compound 60]	1.9 (≈ 3.17 µM)	1.9 (≈ 3.17 µM)	–	–	–	–

Structure (SMILES)	IC90 [1] [µg/mL]	IC90 (M. smegmatis ATCC607) [µg/mL]	IC90 [2] [µg/mL]	IC90 STA 1 B29213 [1] [µg/mL]	IC90 MSM 1 ATCC607 (M. smegmatis ATCC607) [µg/mL]	IC90 SPN 1 6305 [2] [µg/mL]
COc1nc2ccc(Br)cc2cc1C(c1ccccc1)C(O)(CCCCNCCN(C)C)c1ccccc1 (single isomer, unassigned) [Compound 66]	–	–	–	1.8 (≈ 3.12 µM)	–	–
COc1nc2ccc(Br)cc2cc1C(c1ccccc1)C(O)(CCCCN(C)CCc1ccccn1)c1ccccc1 (stereo not drawn) [Compound 9]	–	–	–	2.0 (≈ 3.2 µM)	2.0 (≈ 3.2 µM)	2.2 (≈ 3.52 µM)
COc1nc2ccc(Br)cc2cc1C(c1ccccc1)C(O)(CCCCN1CC2CC1CN2Cc1ccccc1)c1ccccc1 (single isomer, unassigned) [Compound 49]	–	–	–	2.1 (≈ 3.1 µM)	2.1 (≈ 3.1 µM)	0.3 (≈ 0.443 µM)
COc1nc2ccc(Br)cc2cc1C(c1ccccc1)C(O)(CCCCN1CC2CC1CN2C)c1ccc2ccccc2c1 (single isomer, unassigned) [Compound 57]	–	–	–	2.3 (≈ 3.53 µM)	2.1 (≈ 3.23 µM)	–
COc1nc2ccc(Br)cc2cc1C(c1ccccc1)C(O)(CCCCCN1CCCN(C)CC1)c1ccc2ccccc2c1 (single isomer, unassigned) [Compound 54]	2.1 (≈ 3.15 µM)	2.1 (≈ 3.15 µM)	–	–	–	2.1 (≈ 3.15 µM)
COc1nc2ccc(Br)cc2cc1C(c1ccccc1)C(O)(CCCCNC1CC2CCC1C2)c1ccc2ccccc2c1 (stereo not drawn) [Compound 39]	1.8 (≈ 2.77 µM)	–	0.4 (≈ 0.616 µM)	–	1.8 (≈ 2.77 µM)	–
COc1nc2ccc(Br)cc2cc1C(c1ccccc1)C(O)(CCCCc1ccccc1)CCCCN1CC2CC1CN2Cc1ccccc1 (single isomer, unassigned) [Compound 17]	–	–	–	2.3 (≈ 3.14 µM)	0.7 (≈ 0.955 µM)	0.8 (≈ 1.09 µM)
CN1CCCN(CCCCC(O)(c2ccc3ccccc3c2)C(c2ccccc2)c2cc3cc(Br)ccc3[nH]c2=O)CC1 (single isomer, unassigned) [Compound 45]	–	2 (≈ 3.13 µM)	–	2.3 (≈ 3.6 µM)	–	–
COc1nc2ccc(Br)cc2cc1C(c1ccccc1)C(O)(CCCCCN1CCCN(C)CC1)c1ccc2ccccc2c1 (single isomer, unassigned) [Compound 55]	–	–	–	2.1 (≈ 3.15 µM)	2.1 (≈ 3.15 µM)	0.4 (≈ 0.6 µM)
COc1nc2ccc(Br)cc2cc1C(c1ccccc1)C(O)(CCCCN1CCN(C2CCN(Cc3ccccc3)C2)CC1)c1ccc2ccccc2c1 (single isomer, unassigned) [Compound 30]	–	–	–	2.5 (≈ 3.19 µM)	2.5 (≈ 3.19 µM)	2.5 (≈ 3.19 µM)
COc1nc2ccc(Br)cc2cc1C(c1ccccc1)C(O)(CCCCN1CCN(C2CCN(Cc3ccccc3)C2)CC1)c1ccc2ccccc2c1 (single isomer, unassigned) [Compound 31]	–	–	–	12.4 (≈ 15.8 µM)	4.4 (≈ 5.61 µM)	15.6 (≈ 19.9 µM)
COc1nc2ccc(Br)cc2cc1C(c1ccccc1)C(O)(CCCCN1CC2CC1CN2C1CCN(C)CC1)c1ccc2ccccc2c1 (single isomer, unassigned) [Compound 63]	2.3 (≈ 3.13 µM)	2.3 (≈ 3.13 µM)	–	–	–	–
COc1nc2ccc(Br)cc2cc1C(c1ccccc1)C(O)(CCCCN1CC2CC1CN2C)c1ccc2ccccc2c1 (single isomer, unassigned) [Compound 56]	2.3 (≈ 3.53 µM)	2.1 (≈ 3.23 µM)	–	–	–	–
COc1nc2ccc(Br)cc2cc1C(c1ccccc1)C(O)(CCCCN1CC2CC1CN2CCN(C)C)c1ccc2ccccc2c1 (single isomer, unassigned) [Compound 62]	–	–	–	2.2 (≈ 3.11 µM)	–	–
COc1ccc(N2CCN(CCCCC(O)(c3ccc4ccccc4c3)C(c3ccccc3)c3cc4cc(Br)ccc4nc3OC)CC2)cc1 (single isomer, unassigned) [Compound 27]	–	–	–	18.4 (≈ 25.2 µM)	–	–
COc1nc2ccc(Br)cc2cc1C(c1ccccc1)C(O)(CCCCNCCN(C)C)c1ccccc1 (single isomer, unassigned) [Compound 65]	1.8 (≈ 3.12 µM)	1.8 (≈ 3.12 µM)	–	–	–	–
